Structures are written as SMILES. Read-outs that look alike come from different tables or passages of the source.

The test system of one assay is several cell lines. Particulars: prior art references; cited from earlier work.
The subject of assay [1] is breast cancer cell line MaTu. Kind of assay: MTT growth inhibition in breast cancer cell line MaTu. The assay is classed as cell-based, human. Particulars: MaTu cells; for IC50: 4 days incubation, MTT, read-out: IC50 μM ± Standard Deviation. As for the experimental part:
The breast cancer cell line MaTu was seeded, 5×10^3 cells per well, in 96-well-plates. The medium was RMPI 1640 with 2 mM Glutamine and 10% Foetal Bovine Serum. 24 hours later the test compounds were added in 6 concentrations. The cells were incubated for 4 days. The MTT solution was added to each well and incubated for 4 hours. The samples were read by an ELISA reader at 540 nm. The IC50 values were determined from growth curves. The test compounds were troxacitabine elaidic amid, troxacitabine petroselaidoate, troxacitabine-petroselaidic amide and troxacitabine γ-linolenoate.

`CCCCCCCCC=CCCCCCCCC(=O)Nc1ccn(C2COC(CO)O2)c(=O)n1` (stereo not drawn) [oleic acid amid derivative]: the “times better activity than the elaidic acid amide counterpart” value in the assay on several cell lines is reported as 2 to 5 times.

One may read the IC50 as the concentration needed to halve the response being measured. Consider `CCCCCCCC/C=C/CCCCCCCC(=O)Nc1ccn([C@@H]2CO[C@H](CO)O2)c(=O)n1` [troxacitabine elaidic-amide, Troxacitabine N^4-elaidic Acid Amide, reference compound], for which the IC50 in assay [1] worked out at 3.58 ± 2.56 µM.

For the compound `CCCCCCCCCCC/C=C/CCCCC(=O)OC[C@H]1OC[C@@H](n2ccc(N)nc2=O)O1` [troxacitabine petroselaidoate, Troxacitabine-2′-hydroxymethyl-petroselaidoate], the IC50 in assay [1] (Homo sapiens, 96 h) worked out at 0.18 ± 0.12 µM. Further, the “fold more active than troxacitabine elaidic amide” value in assay [1] (relative to troxacitabine elaidic amide) is reported as 20 fold.

For the compound `CCCCC/C=C\C/C=C\C/C=C\CCCCC(=O)OC[C@H]1OC[C@@H](n2ccc(N)nc2=O)O1` [troxacitabine γ-linolenoate, Troxacitabine 2′-hydroxymethyl-6,9,12-linolenoate], in assay [1] (Homo sapiens, 96 h), the IC50 amounted to 0.83 ± 0.59 µM.

For the compound `CCCCCCCCCCC/C=C/CCCCC(=O)Nc1ccn([C@@H]2CO[C@H](CO)O2)c(=O)n1` [troxacitabine-petroselaidic amide, Troxacitabine N^4-petroselaidic Acid Amide], the IC50 in assay [1] (Homo sapiens, 96 h) stood at 0.15 ± 0.07 µM.
